Key:
[1] = system: IBS-D patients; details: cited from earlier work
[2] = target: T1, μ opioid receptor (Homo sapiens, UniProt P35372); details: briefing documents to FDA advisory committee; cited from earlier work
Target sequence in this assay (P35372 whole entry, species assumed): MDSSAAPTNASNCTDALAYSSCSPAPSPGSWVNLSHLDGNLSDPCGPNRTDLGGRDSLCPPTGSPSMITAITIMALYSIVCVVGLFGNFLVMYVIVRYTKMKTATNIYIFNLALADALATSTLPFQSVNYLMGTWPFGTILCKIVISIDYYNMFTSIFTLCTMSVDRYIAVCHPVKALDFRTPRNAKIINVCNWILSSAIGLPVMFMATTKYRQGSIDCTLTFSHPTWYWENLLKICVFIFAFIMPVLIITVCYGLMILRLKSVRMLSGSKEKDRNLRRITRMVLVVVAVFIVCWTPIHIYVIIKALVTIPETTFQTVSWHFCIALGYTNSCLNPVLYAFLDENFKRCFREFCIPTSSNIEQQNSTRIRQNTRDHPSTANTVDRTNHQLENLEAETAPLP

[3] = Stress stability assay of the buprenorphine dimer (tap water, acid, base, heat); type: physicochemical; details: 1N HCl, 5% aqueous sodium bicarbonate, room temperature and 140° F., up to 30 minutes
Method: This study facilitated the understanding of the ease with which a potential abuser could cleave the dimer using household chemicals such as baking soda, acid or simple heating in water. Buprenorphine dimer stability was assessed at room temperature in untreated tap water and in presence of acid (1N HCl) or base (5% aqueous sodium bicarbonate).

[4] = target: T2, human δ subtype 2 opioid receptor (Homo sapiens, UniProt P41143); assay: Human δ opioid receptor binding assay (tritiated naltrindole displacement)
T2 construct: purchased Perkin Elmer RBHODM400UA; host or cells: Chinese Hamster Ovary cells (membranes)
Method: The assay was designed to test the ability of a compound to interfere with the binding of tritiated naltrindole to the human δ subtype 2 opioid receptor. Membranes from Chinese Hamster Ovary cells expressing the human δ subtype 2 opioid receptor (Perkin Elmer #RBHODM400UA) were homogenized in assay buffer (50 mM Tris, pH 7.5 with 5 mM MgCl2) using a glass tissue grinder, Teflon pestle and Steadfast Stirrer (Fisher Scientific). The concentration of membranes was adjusted to 100 μg/mL in the assay plate, a 96 well round bottom polypropylene plate. Compounds to be tested were solubilized in DMSO, 10 mM, then diluted in assay buffer to 6× the desired final concentration. The ligand, ^3H-natrindole (Perkin Elmer #NET-1065) was also diluted in assay buffer to 6 nM. Aliquots of ^3H-natrindole (50 μL) were transferred to the assay plate containing the membranes in duplicate. The assay plate was incubated for 30 minutes at room temperature. A GF/C 96 well filter plate (Perkin Elmer #6005174) was pretreated with 0.3% polyethylenimine for 30 min. The contents of the assay plate were filtered through the filter plate using a Packard Filtermate Harvester, and washed 3 times with 0.9% saline at 4° C. The filter plate was dried, the underside sealed, and a 30 μL MictoS=scint 20 (Packard #6013621) was added to each well. A Topcount-NXT Microplate Scintillation Counter (Packard) was used to measure emitted energies in the range of 2.9 to 35 KeV. Results are compared to maximum binding, wells receiving no inhibitors. Nonspecific binding was determined in the presence of 1 μM unlabelled Natrindole. […] Relative to the μ and κ opioid receptors, the dimer has poor affinity for the δ receptor.

[5] = target: T3, human μ receptors (Homo sapiens, UniProt P35372); assay: μ opioid receptor agonist functional assay: [35S]GTPγS binding in CHO-hMOR cell membranes; type: biochemical; details: FIG. 11
T3 construct: purchased Receptor Biology Inc. (Baltimore Md.); host or cells: CHO-hMOR cell membranes
Method: (§1) This example illustrates the ability of the buprenorphine dimer provided herein to stimulate the p-opioid receptor-mediated signaling. Briefly, CHO-hMOR cell membranes were purchased from Receptor Biology Inc. (Baltimore Md.). About 10 mg/ml of membrane protein was suspended in 10 mM TRIS-HCl pH 7.2, 2 mM EDTA, 10% sucrose, and the suspension kept on ice. One mL of membranes was added to 15 mL cold binding assay buffer containing 50 mM HEPES, pH 7.6, 5 mM MgCl2, 100 mM NaCl, 1 mM DTT and 1 mM EDTA. The membrane suspension was homogenized with a polytron and centrifuged at 3000 rpm for 10 min. The supernatant was then centrifuged at 18,000 rpm for 20 min. The pellet was resuspended in 10 mL assay buffer with a polytron. […]
(§2) The buprenorphine dimer was tested for function as an antagonist by evaluating its potential to inhibit agonist-stimulated GTPγS binding using D-Phe-Cys-Tyr-D-Trp-Orn-Thr-Pen-Thr-NH2 (CTOP) as the standard. Radioactivity was quantified on a Packard Top Count. The following parameters are calculated: % Stimulation=[(test compound cpm−non-specific cpm)/(basal cpm−non-specific cpm)]*100 % Inhibition=(% stimulation by 1 μM SNC80−% stimulation by 1 μM SNC80 in presence of test compound)*100/(% stimulation by 1 μM SNC80−100).
(§3) EC50 was calculated using GraphPad Prism.

[6] = target: T3, human μ receptors; assay: μ opioid receptor antagonist functional assay: [35S]GTPγS binding in CHO-hMOR cell membranes; type: biochemical; details: inhibition of agonist-stimulated GTPγS binding, FIG. 12
Method: as §1, §2, §3

[7] = In vivo pharmacokinetic study, oral and IV; details: CD-1 mice, 10 mg/kg IV and oral gavage
Method: Animals used in these animal pharmacokinetic studies were CD-1 mice (about 35 gms, n=3 per time point). Drugs tested were buprenorphine and the buprenorphine dimer. Dose 10 mg/kg IV and oral gavage. Blood was collected at time 0, 30 min and 1, 2, 6 and 24 hours. Blood samples for the drug were analyzed after harvesting the plasma and by LC/MS/MS as follows:
Standard curve was prepared in mouse plasma spiked with either the test drugs (10-25000 nM). Plasma samples (50 μL) were extracted in 300 μL acetonitrile containing losartan or buprenorphine-d4 as internal standard. Extracts were centrifuged at 16000×g at 4° C. for 5 minutes. Supernatants (250 μL) were transferred to a new tube and dried under N2 at 45° C. for 1 hour. Samples were reconstituted with 100 μL of 30% acetonitrile, vortexed and centrifuged. Supernatants (90 μL) were transferred to LC vials and 10 μL is injected on LC/MS.

[8] = system: male CD-1 mice; assay: Stress-induced fecal output; type: in vivo
Description: The animals used in the studies were male CD-1 mice, average weight about 30 to 35 g, with an average of 5 mice per dose group. The mice were generally housed in colony housing where they are housed 3 per cage in polycarbonate cages with access to food and water ad lib.
On the day of the experiment the mice were transported to the procedure room where they were individually housed in 20 cm wide×20 cm deep×15 cm tall cages, equipped with a wire mesh bottom after intragastric administration of test compounds. During the test the animals were allowed access to water only ad lib. The wire mesh bottomed tall cage creates a novel environment which induces stress in mice. The number of pellets excreted was determined on an hourly basis.

[9] = system: male CD-1 mice; assay: Effect on post-inflammatory altered GI transit time (mustard oil); type: in vivo; details: 25 mg per kg oral, mustard oil treated mice
Method: This test was designed to measure the effect of test substance on gastrointestinal hypersensitivity following inflammation. Post-inflammatory altered GI transit was induced in male CD-1 mice by injecting freshly opened oil of mustard (95% pure allyl isothiocyanate, 0.5% in ethanol). The effect of stress on the post-inflammatory GI tract was tested 3-4 weeks after dosing. […] The effect of the test substance was measured after oral administration (intragastric gavage) and subjecting animals to environmental stress by housing them in cages (20 cm wide×20 cm deep×15 cm tall), equipped with a wire mesh bottom. During the test the animals were allowed access to water ad lib. The wire mesh bottomed tall cage creates a novel environment which induces stress in mice. The number of pellets excreted is determined on hourly to two-hourly basis.

[10] = system: human liver microsomes; assay: Metabolic stability of buprenorphine dimer in human liver microsomes; details: 1 μM, human liver microsomes 1 mg protein/mL, 37 °C, with or without NADPH co-factor, up to 2 hours
Method: Incubations of the dimer (e.g., 1 μM) with human liver microsomes (e.g., 1 mg protein/mL) were carried out using a Tecan Liquid Handling System (Tecan), or equivalent, at 37±1° C. in 0.2-mL incubation mixtures (final volume) containing potassium phosphate buffer (50 mM, pH 7.4), MgCl2 (3 mM) and EDTA (1 mM, pH 7.4) with and without a cofactor, NADPH-generating system, at the final concentrations indicated in a 96-well plate format. The NADPH-generating system consisted of NADP (1 mM, pH 7.4), glucose-6-phosphate (5 mM, pH 7.4) and glucose-6-phosphate dehydrogenase (1 Unit/mL). The buprenorphine dimer was dissolved in aqueous methanolic solution (methanol 0.5% v/v, or less). […] Zero-time incubations served as 100% value to determine percent loss of substrate. […] The samples were subjected to centrifugation (e.g., 920×g for 10 min at 10° C.) and the supernatant fractions analyzed by LC-MS/MS. […]
The above samples were analyzed by an LC-MS/MS method. […] Results were determined by a comparison of peak ratios over the time course of the experiment (typically reported as “% Parent Remaining”).
Data were calculated with a LIMS (includes Galileo, Thermo Fisher Scientific Inc. and reporting tool, Crystal Reports, SAP), the spreadsheet computer program Microsoft Excel (Microsoft Corp.) or equivalent. […]

[11] = target: T1, μ opioid receptor; assay: Human μ opioid receptor binding assay (3H-Naloxone displacement); design: purchased Perkin Elmer RBHOMM400UA; host or cells: Chinese Hamster Ovary cells (membranes); details: FIG. 9
Target sequence in this assay (P35372 whole entry): as the sequence (P35372 whole entry, species assumed) above
Method: Membranes from Chinese Hamster Ovary cells expressing the human μ opioid receptor (Perkin Elmer #RBHOMM400UA) were homogenized in assay buffer (50 mM Tris, pH 7.5 with 5 mM MgCl2) using glass tissue grinder, Teflon pestle and Steadfast Stirrer (Fisher Scientific). The concentrates of the membranes were adjusted to 300 μg/mL in assay plate, a 96 well round bottom polypropylene plate. […] From the premix plate 50 μL was transferred to the assay plate containing the membranes, in duplicate. The assay plate was incubated for 2 h at room temperature. […] The contents of the assay plate were filtered through the filter plate using a Packard Filtermate Harvester, and washed 3 times with 0.9% saline at 4° C. […] A Topcount-NXT Microplate Scintillation Counter (Packard) was used to measure emitted energies in the range of 2.9 to 35 KeV. Results were compared to maximum binding, wells receiving no inhibitions.

[12] = system: mice; details: mildly stressed mice
Description: In the study a group mice were subjected to mild stress, which normally induces diarrhea and gastrointestinal motility measured by number of fecal pellets excreted per hour.

[13] = system: human liver microsomes; details: approximately 1 μM, human liver microsomes 1 mg protein/ml, up to 1 hour
Method: Incubations of the dimer (e.g., 1 μM) with human liver microsomes (e.g., 1 mg protein/mL) were carried out using a Tecan Liquid Handling System (Tecan), or equivalent, at 37±1° C. in 0.2-mL incubation mixtures (final volume) containing potassium phosphate buffer (50 mM, pH 7.4), MgCl2 (3 mM) and EDTA (1 mM, pH 7.4) with and without a cofactor, NADPH-generating system, at the final concentrations indicated in a 96-well plate format. The NADPH-generating system consisted of NADP (1 mM, pH 7.4), glucose-6-phosphate (5 mM, pH 7.4) and glucose-6-phosphate dehydrogenase (1 Unit/mL). […] Zero-time incubations served as 100% value to determine percent loss of substrate. Incubations were carried out in triplicate with an exception for zero-time samples (which were incubated in quadruplicate). Zero-cofactor (no NADPH) incubations were performed at zero-time and the longest time point. The samples were subjected to centrifugation (e.g., 920×g for 10 min at 10° C.) and the supernatant fractions analyzed by LC-MS/MS. Additional incubations were carried out with microsomes and a marker substrate (e.g., dextromethorphan to monitor substrate loss) as a positive control to determine if the test system was metabolically competent.
The incubation medium was assayed by LC/MS/MS for the formation of naloxone over time.

[14] = room temperature, tap water, 1N HCl or 5% aqueous sodium bicarbonate

T2 sequence (P41143 whole entry): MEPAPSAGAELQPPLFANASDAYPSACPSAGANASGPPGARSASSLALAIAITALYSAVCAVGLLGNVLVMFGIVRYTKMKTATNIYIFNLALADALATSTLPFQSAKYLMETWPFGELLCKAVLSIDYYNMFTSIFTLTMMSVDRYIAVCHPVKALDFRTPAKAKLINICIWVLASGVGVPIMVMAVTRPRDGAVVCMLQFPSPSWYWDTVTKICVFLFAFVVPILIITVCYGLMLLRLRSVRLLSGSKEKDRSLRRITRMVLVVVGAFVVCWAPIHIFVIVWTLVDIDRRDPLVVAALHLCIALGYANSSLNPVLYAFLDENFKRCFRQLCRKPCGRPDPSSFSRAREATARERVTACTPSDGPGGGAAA
T3 sequence (P35372 whole entry): as the sequence (P35372 whole entry, species assumed) above

COc1ccc(CN(C(=O)[C@@H](N)Cc2c(C)cc(C(N)=O)cc2C)[C@@H](C)c2ncc(-c3ccccc3)[nH]2)cc1C(=O)O [Eluxadoline]
pancreatitis cases ([1]; Phase II trials): several cases of pancreatitis | Phase III efficacy endpoints ([1]; Phase III testing, IBS-D): met primary endpoints of improvement in stool consistency and reduction of abdominal pain

C[N@+]1(CC2CC2)CC[C@]23c4c5ccc(O)c4O[C@H]2C(=O)CC[C@@]3(O)[C@H]1C5 [Methylnaltrexone Bromide]
Ki [2]: 42 nM

CO[C@]12CC[C@@]3(C[C@@H]1[C@](C)(O)C(C)(C)C)[C@H]1Cc4ccc(OCCOc5ccc6c7c5O[C@H]5[C@@]8(OC)CC[C@@]9(C[C@@H]8[C@](C)(O)C(C)(C)C)[C@@H](C6)N(CC6CC6)CC[C@]759)c5c4[C@@]3(CCN1CC1CC1)[C@H]2O5 [buprenorphine dimer]
stability / degradation to buprenorphine [3]: remained stable and did not degrade to release buprenorphine | IC50 [4]: 7.6 nM | Ki [4]: 2.87 nM | affinity for the δ receptor relative to the μ and κ opioid receptors [4]: poor affinity | μ agonist function [5]: potent μ agonist | μ antagonist function [6]: does not function as a μ-antagonist | absolute bioavailability (ratio of the area under the concentration curve after oral and IV dose) [7]: ≤ 1% | dose dependence of fecal output ([8]; FIG. 15): decreases with dose | fecal output versus placebo (vehicle) ([8]; oral, 25 and 50 mg per kg, stressed male CD-1 mice): significantly reduced the fecal output | gastrointestinal motility as measured by fecal output [9]: significantly decreases gastrointestinal motility | gastrointestinal motility as measured by fecal output at 2 hours ([9]; 2 hours): continues to inhibit gastrointestinal motility with statistically significant results | stability in presence of microsomal enzymes (% Parent Remaining) [10]: relatively stable | affinity for the opioid μ receptor [11]: significant affinity

CO[C@]12CC[C@@]3(C[C@@H]1[C@](C)(O)C(C)(C)C)[C@H]1Cc4ccc(O)c5c4[C@@]3(CCN1CC1CC1)[C@H]2O5 [buprenorphine, Buprenorphine, reference compound]
absolute bioavailability (ratio of the area under the concentration curve after oral and IV dose) [7]: about 30%

CN(C)C(=O)C(CCN1CCC(O)(c2ccc(Cl)cc2)CC1)(c1ccccc1)c1ccccc1 [loperamide, reference compound]
number of pellets expelled versus control (vehicle) animals [12]: significantly less

C=CCN1CC[C@]23c4c5ccc(OCCOc6ccc7c8c6O[C@H]6C(=O)CC[C@@]9(O)[C@@H](C7)N(CC=C)CC[C@]869)c4O[C@H]2C(=O)CC[C@@]3(O)[C@H]1C5 [naloxone dimer]
formation of naloxone over time [13]: no evidence of formation naloxone over time | stability / degradation to naloxone [14]: does not appreciably degrade to naloxone | reversal of loperamide-induced constipation (fecal pellets excreted per hour) ([12]; comparable to control by hour 3 or later): reversed the constipating effects

Reference: patent US9309256B2, “Pharmaceutically active dimers linked through phenolic hydroxyl groups” (OrphoMed LLC, priority 2014, dated 2016)
